In patent US9725445B2, “Cycloalkyl nitrile pyrazolo pyridones as Janus kinase inhibitors” (Merck Sharp & Dohme Corp., priority 2013, dated 2017) one finds IC50 data, which are given here for 17 molecules.

Structures are written as SMILES.

One experiment deals with JAK1 (Homo sapiens (Human), UniProt P23458). Nature of the experiment: Jak biochemical HTRF assay, JAK1. The following applies: HTRF biochemical assay, recombinant GST-tagged catalytic domain; read-out: JAK1 IC50. In general terms: Time-resolved FRET reads energy transfer from a long-lived donor to a nearby acceptor.
JAK1, sequence (P23458 875-1153): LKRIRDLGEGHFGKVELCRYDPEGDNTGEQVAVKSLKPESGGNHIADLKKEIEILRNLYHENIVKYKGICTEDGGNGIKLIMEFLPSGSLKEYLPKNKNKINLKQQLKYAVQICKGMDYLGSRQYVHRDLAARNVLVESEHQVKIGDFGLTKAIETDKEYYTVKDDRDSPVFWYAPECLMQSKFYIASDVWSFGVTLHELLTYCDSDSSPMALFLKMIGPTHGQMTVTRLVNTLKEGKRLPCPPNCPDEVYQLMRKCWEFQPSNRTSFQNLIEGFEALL
A further experiment concerns the target JAK2 (Homo sapiens (Human), UniProt O60674). Nature of the experiment: Jak biochemical HTRF assay, JAK2. To be noted: HTRF biochemical assay, recombinant GST-tagged catalytic domain; read-out: JAK2 IC50.

JAK2, sequence (O60674 849-1124): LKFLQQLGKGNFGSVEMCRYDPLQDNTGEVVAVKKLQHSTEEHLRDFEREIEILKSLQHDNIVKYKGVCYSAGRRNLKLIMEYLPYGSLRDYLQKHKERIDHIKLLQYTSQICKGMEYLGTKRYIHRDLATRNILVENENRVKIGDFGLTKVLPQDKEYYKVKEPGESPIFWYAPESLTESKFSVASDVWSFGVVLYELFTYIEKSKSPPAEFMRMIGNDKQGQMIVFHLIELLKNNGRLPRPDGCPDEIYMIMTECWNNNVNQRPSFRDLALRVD

For orientation: IC50 means the midpoint of a concentration-inhibition curve. On to `CN1Cc2ccc(Nc3nn([C@H]4CCCC[C@@H]4C#N)c4cc[nH]c(=O)c34)cc2C1` [Example 3-64, (1S,2S)-2-{3-[(2-methyl-2,3-dihydro-1H-isoindol-5-yl)amino]-4-oxo-4,5-dihydro-1H-pyrazolo[4,3-c]pyridin-1-yl}cyclohexanecarbonitrile], for which the values for the IC50 at JAK1 and on JAK2 were 0.39 nM and 1.6 nM, respectively.
Turning to `N#C[C@H]1CCCC[C@@H]1n1nc(Nc2ccc3c(c2)CN(CC2CCCC2)S3(=O)=O)c2c(=O)[nH]ccc21` [Example 3-65, (1S,2S)-2-(3-{[2-(cyclopentylmethyl)-1,1-dioxido-2,3-dihydro-1,2-benzisothiazol-5-yl]amino}-4-oxo-4,5-dihydro-1H-pyrazolo[4,3-c]pyridin-1-yl)cyclohexanecarbonitrile], the IC50 at JAK1 is 0.12 nM; on JAK2, 0.65 nM.
As to `C[C@@H](NCC(F)(F)F)c1ccc(Nc2nn([C@H]3CCCC[C@@H]3C#N)c3cc[nH]c(=O)c23)cc1` [Example 3-66, (1S,2S)-2-{4-oxo-3-[(4-{(1R)-1-[(2,2,2-trifluoroethyl)amino]ethyl}phenyl)amino]-4,5-dihydro-1H-pyrazolo[4,3-c]pyridin-1-yl}cyclohexanecarbonitrile], the IC50 at JAK1 was 0.2 nM; at JAK2 it was 0.32 nM.
`Cc1cc(Nc2nn([C@H]3CCCC[C@@H]3C#N)c3cc[nH]c(=O)c23)ccc1C(=O)N(C)C` [Example 3-67, 4-({1-[(1S,2S)-2-cyanocyclohexyl]-4-oxo-4,5-dihydro-1H-pyrazolo[4,3-c]pyridin-3-yl}amino)-N,N,2-trimethylbenzamide]: the half-inhibitory concentration (IC50) on JAK1 is 0.34 nM; at JAK2 it was 0.43 nM.
In the same order, the values of `Cc1cc(Nc2nn([C@H]3CCCC[C@@H]3C#N)c3cc[nH]c(=O)c23)ccc1C(=O)N1CCOCC1` [Example 3-68, (1S,2S)-2-(3-{[3-methyl-4-(morpholin-4-ylcarbonyl)phenyl]amino}-4-oxo-4,5-dihydro-1H-pyrazolo[4,3-c]pyridin-1-yl)cyclohexanecarbonitrile] are 0.47 nM and 0.28 nM.
As to `CN(C)C(=O)c1ccc(Nc2nn([C@H]3CCCC[C@@H]3C#N)c3cc[nH]c(=O)c23)cc1C1CC1` [Example 3-69, 4-({1-[(1S,2S)-2-cyanocyclohexyl]-4-oxo-4,5-dihydro-1H-pyrazolo[4,3-c]pyridin-3-yl}amino)-2-cyclopropyl-N,N-dimethylbenzamide], the IC50 on JAK1 came to 2.1 nM; at JAK2 it was 5.7 nM.
`C[C@H](NCC(F)(F)F)c1ccc(Nc2nn([C@H]3CCCC[C@@H]3C#N)c3cc[nH]c(=O)c23)cc1` [Example 3-73, (1S,2S)-2-{4-oxo-3-[(4-{(1S)-1-[(2,2,2-trifluoroethyl)amino]ethyl}phenyl)amino]-4,5-dihydro-1H-pyrazolo[4,3-c]pyridin-1-yl}cyclohexanecarbonitrile]: the figures for the IC50 at JAK1 and at JAK2 were 0.26 nM and 0.45 nM, respectively.
As for `CC(C)N1Cc2ccc(Nc3nn([C@H]4CCCC[C@@H]4C#N)c4cc[nH]c(=O)c34)cc2C1` [Example 3-74, (1S,2S)-2-(3-{[2-(1-methylethyl)-2,3-dihydro-1H-isoindol-5-yl]amino}-4-oxo-4,5-dihydro-1H-pyrazolo[4,3-c]pyridin-1-yl)cyclohexanecarbonitrile], the IC50 at JAK1 is 0.14 nM; at JAK2, 0.29 nM.
As to `CC(C)CN1Cc2ccc(Nc3nn([C@H]4CCCC[C@@H]4C#N)c4cc[nH]c(=O)c34)cc2C1` [Example 3-75, (1S,2S)-2-(3-{[2-(2-methylpropyl)-2,3-dihydro-1H-isoindol-5-yl]amino}-4-oxo-4,5-dihydro-1H-pyrazolo[4,3-c]pyridin-1-yl)cyclohexanecarbonitrile], the figures for the IC50 at JAK1 and on JAK2 were 0.28 nM and 0.68 nM, respectively.
Take `CCN1Cc2ccc(Nc3nn([C@H]4CCCC[C@@H]4C#N)c4cc[nH]c(=O)c34)cc2C1` [Example 3-76, (1S,2S)-2-{3-[(2-ethyl-2,3-dihydro-1H-isoindol-5-yl)amino]-4-oxo-4,5-dihydro-1H-pyrazolo[4,3-c]pyridin-1-yl}cyclohexanecarbonitrile]: the IC50 turned out to be 0.41 nM at JAK1 and 2.1 nM on JAK2.
In the same order, the values of `CSCc1cc(Cn2ccnn2)cc(Nc2nn([C@H]3CCCC[C@@H]3C#N)c3cc[nH]c(=O)c23)c1` [Example 3-78, (1S,2S)-2-[3-({3-[(methylsulfanyl)methyl]-5-(1H-1,2,3-triazol-1-ylmethyl)phenyl}amino)-4-oxo-4,5-dihydro-1H-pyrazolo[4,3-c]pyridin-1-yl]cyclohexanecarbonitrile] are 2 nM and 4.4 nM.
As to `CC(C)N1Cc2cc(Nc3nn([C@H]4CCCC[C@@H]4C#N)c4cc[nH]c(=O)c34)ccc2S1(=O)=O` [Example 3-79, (1S,2S)-2-(3-{[2-(1-methylethyl)-1,1-dioxido-2,3-dihydro-1,2-benzisothiazol-5-yl]amino}-4-oxo-4,5-dihydro-1H-pyrazolo[4,3-c]pyridin-1-yl)cyclohexanecarbonitrile], the IC50 on JAK1 was determined as 0.071 nM; on JAK2 it was 0.48 nM.
Regarding `N#C[C@H]1CCCC[C@@H]1n1nc(Nc2ccc3c(c2)CN(CCO)S3(=O)=O)c2c(=O)[nH]ccc21` [Example 3-80, (1S,2S)-2-(3-{[2-(2-hydroxyethyl)-1,1-dioxido-2,3-dihydro-1,2-benzisothiazol-5-yl]amino}-4-oxo-4,5-dihydro-1H-pyrazolo[4,3-c]pyridin-1-yl)cyclohexanecarbonitrile], the IC50 on JAK1 turned out to be 0.079 nM; on JAK2, 0.92 nM.
As to `COCCN1Cc2cc(Nc3nn([C@H]4CCCC[C@@H]4C#N)c4cc[nH]c(=O)c34)ccc2S1(=O)=O` [Example 3-83, (1S,2S)-2-(3-{[2-(2-methoxyethyl)-1,1-dioxido-2,3-dihydro-1,2-benzisothiazol-5-yl]amino}-4-oxo-4,5-dihydro-1H-pyrazolo[4,3-c]pyridin-1-yl)cyclohexanecarbonitrile], the half-inhibitory concentration (IC50) on JAK1 is 0.066 nM; at JAK2, 0.55 nM.
The matching figures for `CC(C)(O)c1cn(Cc2cccc(Nc3nn([C@H]4CCCC[C@@H]4C#N)c4cc[nH]c(=O)c34)c2)nn1` [Example 3-84, (1S,2S)-2-{3-[(3-{[4-(1-hydroxy-1-methylethyl)-1H-1,2,3-triazol-1-yl]methyl}phenyl)amino]-4-oxo-4,5-dihydro-1H-pyrazolo[4,3-c]pyridin-1-yl}cyclohexanecarbonitrile]: 0.52 nM and 2.6 nM.
In the case of `COCC(C)(O)c1cc(Nc2nn([C@H]3CCCC[C@@H]3C#N)c3cc[nH]c(=O)c23)ccc1S(C)(=O)=O` (stereo partly drawn) [Example 3-85, (1S,2S)-2-(3-{[3-(1-hydroxy-2-methoxy-1-methylethyl)-4-(methylsulfonyl)phenyl]amino}-4-oxo-4,5-dihydro-1H-pyrazolo[4,3-c]pyridin-1-yl)cyclohexanecarbonitrile], the IC50 at JAK1 was 3 nM; on JAK2, 4.2 nM.
In the same order, the values of `CC(O)(CO)c1cc(Nc2nn([C@H]3CCCC[C@@H]3C#N)c3cc[nH]c(=O)c23)ccc1S(C)(=O)=O` (stereo partly drawn) [Example 3-87, (1S,2S)-2-(3-{[3-(1,2-dihydroxy-1-methylethyl)-4-(methylsulfonyl)phenyl]amino}-4-oxo-4,5-dihydro-1H-pyrazolo[4,3-c]pyridin-1-yl)cyclohexanecarbonitrile] are 0.25 nM and 0.95 nM.
